Here are results for 3 substances from US20220160812A1, “A PHARMACEUTICALLY ACTIVE SUBSTANCE” (Cytopharma GmbH, priority 2019, published 2022).

The subject of the assay is BxPC-3 human pancreatic cancer cells. In words: cell vitality FACS analysis (region R-1, FSC/SSC), BxPC-3 cells. It is filed as cell-based. Conditions: BxPC-3, Protocol A, about 24 hours, FIG. 8. As to the method: To transfer adherent cells (A375 and BxPC-3 cells) after culture, cells are washed twice with PBS. To detach the cells, the enzyme biotase is used according to the manufacturer's instructions. For this purpose, after washing with PBS, the cells are mixed with biotase (5 ml of biotase solution per 75 cm^2 surface of the cell culture bottles) and incubated for 5 min at 37 degrees Celsius, and the biotase is separated by centrifugation. Cells cultivated in suspension (MEC-1 and lymphocytes) were transferred by dilution. The cells are suspended in culture medium and counted, each time 1.5×10^5 cells/cm^2 are seeded in 48-well plates and cultured for between 1.5 and 24 hours at 37 degrees Celsius, 5% CO2. Peptides are pre-diluted from stock solution with culture medium and 200 μl of peptide solution added so that final concentrations of 30 to 500 μM peptide are present in at most 1% (v/v) DMSO. As control solutions, culture medium without peptide (DMSO-containing) in culture medium or etoposide solution is added. After incubating the cells for several hours, the cell supernatant is transferred to a FACS tube for each batch and, after washing the cells with PBS, the wash solution is added. Then the cells are incubated with 200 μl of biotase solution for 10 min, 37° C., the cells with the biotase are also transferred to the FACS tube and the cells are collected by centrifugation for 5 min. The cell pellet is suspended in 500 μl of serum-free culture medium, then 1.5 ml of cold 80% ethanol (ethanol/PBS-80/20, v/v, stored at −20° C.) is added, the FACS tubes sealed and stored at −20 degrees Celsius for 15 to 18 h. Thereafter, the cells are centrifuged for 5 minutes at 120 g, suspended after removal of the supernatant in 2 ml PBS and incubated at 37 degrees Celsius for 30 minutes. After re-centrifugation, the cells are suspended in 0.5 ml DAPI solution and incubated for 15 min at 20 degrees Celsius in the dark. Thereafter, the cells are stored dark for a maximum of four hours in an ice bath, followed by the FACS analysis. […]
For suspension cells (MEC-1 and lymphocytes/PBMC) and for adherent cells analyzed according to Protocol A, FACS analysis to determine subG1 cell cycle and vital cell fractions was done on a Becton Dickinson LSR Fortessa flow cytometer. The analysis by FACS including subG1 and vital cell analysis according to protocol B was performed with a Cytomics FC 500 MPL flow cytometer from Beckman Coulter.
Changes of the cell form during cell death by apoptosis are documented in the literature (Lizard et al. 1995; Taga et al. 2000; Vermes et al., 2000). The protocols for cell cultivation, treatment and preparation of the cells before flow cytometry is detailed in separate examples. Cell suspensions of cell lines A375, BxPC-3, MEC-1 or of primary lymphocytes (see separate example of lymphocyte preparation) are analyzed by flow cytometry. The data are further analyzed by using the program “Flowing Software 2”. The data of light scattering are drawn in a two-dimensional FSC/SSC plot. Since the position in the FSC/SSC plot of apoptotic cells changes relative to non-apoptotic cells (Vermes et al., 2000), a region (R-1) is drawn representing mainly non-apoptotic cells and excluding cells with both low FSC and low SSC values and excluding cells with high values of FSC and/or SSC (FIG. 1). The regions are individually selected for each cell type (A375, BxPC-3, MEC-1 and primary lymphocytes). The percentage of untreated non-apoptotic cells in the region R-1 relative to total cells is set to 100%, representing 100% vital cells. The fraction (%) of cells in R-1 relative to the total number of cells in case of cell treatment by certain peptides or by cytotoxic drugs results in cell vitality, below 100%, thereby indicating a loss of cell vitality by the treatment. […]
In general terms: A flow cytometer gives signals particle by particle.

Where [1] appears, read: all concentrations (50, 100, 200 μM).

In the case of “k-s-q-t-v-k-k-w-m-v-v-y-f-r-k [SEQID No 29]”, the “decrease of cell vitality, efficiency in words” value (“decrease … efficiency in words” below) runs as follows: (100 μM) “very high efficiency”; (200 μM) “astonishing high efficiency”. The “decrease of cell vitality, comparison in words” value (from here on “decrease … comparison in words”) under setting [1] was “significantly greater decrease than the control peptide (C1)”.

For the substance “s-q-t-v-q-k-w-m-v-v-y-f-r-k [SEQID No 37]”, the “decrease … efficiency in words” value (200 μM) is “astonishing high efficiency”. Also, the “decrease … comparison in words” value under setting [1] is listed as “significantly greater decrease than the control peptide (C1)”.

With “k-s-q-t-v-q-k-w-m-v-v-y-f-r-k [SEQID No 36]”, the “decrease … comparison in words” value was “clear improvement over peptides SEQID NO 27, SEQID NO 37 and SEQID NO 29” (50 μM); “significantly greater decrease than the control peptide (C1)” under setting [1]. Moreover, the “efficiency (decrease of cell vitality) in view of Peptide SEQ C1” value is “at least fourfold” (50 μM); “at least sevenfold” (100 and 200 μM). Besides, the “decrease … efficiency in words” value by setting is: (100 μM) “very high efficiency”; (200 μM) “astonishing high efficiency”.
